Columns and labels:
PIKFYVE [1] = target: T1, PIKFYVE (Homo sapiens, UniProt Q9Y2I7); experiment: Cell-based Pikfyve inhibition activity assay (EEA1 staining, mean vesicle size in BJ fibroblast cells); conditions: Table 4, 4 hours treatment, 3 μM Apilimod = 100% inhibition
Protocol: BJ fibroblast cells were obtained from American Type Cell Culture (ATCC, CRL-2522). The cells were maintained in DMEM (Genesee Scientific, 25-500) supplemented with 10% fetal bovine serum (Genesee Scientific, 25-514) and 1% penicillin-streptomycin (Genesee Scientific, 25-512) at 37° C. in the atmosphere 5% CO2. BJ fibroblasts were plated into black flat clear bottom 96-well plates (Grenier, 655090) at a density of 3×10^3 per well and were allowed to attach in culture for 8-10 hours before drug treatment. Drugs were tested at eleven doses separated by 3 fold from 0.03 nM to 3000 nM in triplicates for 4 hours at 37° C. After 4 hours, treatment media was aspirated and replaced with 4% Paraformaldehyde (Electron Microscopy Science, 15714-S) and cells were fixed at room temperature for 5 minutes. 4% PFA in wells were then discarded and replaced with a blocking buffer consisting of 1×PBS with 0.1% Tween (Sigma-Aldrich, P1754-500), 5% Donkey Serum (Jackson ImmunoResearch, 017-000-121), and 1% BSA (Caisson Labs, B005-50GM) and incubated at room temperature for 30 minutes. Blocking buffer was then discarded and replaced with a primary EEA1 antibody (Fisher Scientific, BD610457) in a 1:1000 dilution and incubated at 4° C. overnight. Following overnight incubation, plates were washed with 1×PBS three times and incubated with secondary antibody Donkey anti-Mouse IgG, Alexa Fluor 555 (Invitrogen, A31570) (1:1000 dilution) for 1 hour at room temperature in the dark. Subsequently cell plates were washed with 1×PBS three times and can be stored at 4° C. if not being proceeding with imaging procedure.
Images were acquired with 20× objective (ImageXpress MicroConfocal, Molecular Devices) creating z-series of 5 planes (5 steps, […]), 16 tiles per well. Images were then analyzed using a custom CellProfiler protocol to obtain mean vesicle size. The mean vesicle size from 16 images was used as the output for each well. The mean vesicle size from 0.5% DMSO treated condition was considered as having no Pikfyve inhibition activity and the 3 μM Apilimod treated condition was considered as having 100% inhibition activity. The mean vesicle size was converted to % inhibition activity and the data was fitted to a dose-response curve using log(inhibitor) vs normalized response-variable slope using GraphPad Prism.

PIKFYVE [2] = target: T1, PIKFYVE; experiment: PIKFYVE assay (luciferase ADP-Glo kinase assay, Promega); assay type: biochemical; conditions: Table 3
Summary of the method: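 Kinase activity measured with a luciferase-based ADP-Glo read-out, which quantifies ADP formed by the enzyme.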

T1 sequence (Q9Y2I7 whole entry): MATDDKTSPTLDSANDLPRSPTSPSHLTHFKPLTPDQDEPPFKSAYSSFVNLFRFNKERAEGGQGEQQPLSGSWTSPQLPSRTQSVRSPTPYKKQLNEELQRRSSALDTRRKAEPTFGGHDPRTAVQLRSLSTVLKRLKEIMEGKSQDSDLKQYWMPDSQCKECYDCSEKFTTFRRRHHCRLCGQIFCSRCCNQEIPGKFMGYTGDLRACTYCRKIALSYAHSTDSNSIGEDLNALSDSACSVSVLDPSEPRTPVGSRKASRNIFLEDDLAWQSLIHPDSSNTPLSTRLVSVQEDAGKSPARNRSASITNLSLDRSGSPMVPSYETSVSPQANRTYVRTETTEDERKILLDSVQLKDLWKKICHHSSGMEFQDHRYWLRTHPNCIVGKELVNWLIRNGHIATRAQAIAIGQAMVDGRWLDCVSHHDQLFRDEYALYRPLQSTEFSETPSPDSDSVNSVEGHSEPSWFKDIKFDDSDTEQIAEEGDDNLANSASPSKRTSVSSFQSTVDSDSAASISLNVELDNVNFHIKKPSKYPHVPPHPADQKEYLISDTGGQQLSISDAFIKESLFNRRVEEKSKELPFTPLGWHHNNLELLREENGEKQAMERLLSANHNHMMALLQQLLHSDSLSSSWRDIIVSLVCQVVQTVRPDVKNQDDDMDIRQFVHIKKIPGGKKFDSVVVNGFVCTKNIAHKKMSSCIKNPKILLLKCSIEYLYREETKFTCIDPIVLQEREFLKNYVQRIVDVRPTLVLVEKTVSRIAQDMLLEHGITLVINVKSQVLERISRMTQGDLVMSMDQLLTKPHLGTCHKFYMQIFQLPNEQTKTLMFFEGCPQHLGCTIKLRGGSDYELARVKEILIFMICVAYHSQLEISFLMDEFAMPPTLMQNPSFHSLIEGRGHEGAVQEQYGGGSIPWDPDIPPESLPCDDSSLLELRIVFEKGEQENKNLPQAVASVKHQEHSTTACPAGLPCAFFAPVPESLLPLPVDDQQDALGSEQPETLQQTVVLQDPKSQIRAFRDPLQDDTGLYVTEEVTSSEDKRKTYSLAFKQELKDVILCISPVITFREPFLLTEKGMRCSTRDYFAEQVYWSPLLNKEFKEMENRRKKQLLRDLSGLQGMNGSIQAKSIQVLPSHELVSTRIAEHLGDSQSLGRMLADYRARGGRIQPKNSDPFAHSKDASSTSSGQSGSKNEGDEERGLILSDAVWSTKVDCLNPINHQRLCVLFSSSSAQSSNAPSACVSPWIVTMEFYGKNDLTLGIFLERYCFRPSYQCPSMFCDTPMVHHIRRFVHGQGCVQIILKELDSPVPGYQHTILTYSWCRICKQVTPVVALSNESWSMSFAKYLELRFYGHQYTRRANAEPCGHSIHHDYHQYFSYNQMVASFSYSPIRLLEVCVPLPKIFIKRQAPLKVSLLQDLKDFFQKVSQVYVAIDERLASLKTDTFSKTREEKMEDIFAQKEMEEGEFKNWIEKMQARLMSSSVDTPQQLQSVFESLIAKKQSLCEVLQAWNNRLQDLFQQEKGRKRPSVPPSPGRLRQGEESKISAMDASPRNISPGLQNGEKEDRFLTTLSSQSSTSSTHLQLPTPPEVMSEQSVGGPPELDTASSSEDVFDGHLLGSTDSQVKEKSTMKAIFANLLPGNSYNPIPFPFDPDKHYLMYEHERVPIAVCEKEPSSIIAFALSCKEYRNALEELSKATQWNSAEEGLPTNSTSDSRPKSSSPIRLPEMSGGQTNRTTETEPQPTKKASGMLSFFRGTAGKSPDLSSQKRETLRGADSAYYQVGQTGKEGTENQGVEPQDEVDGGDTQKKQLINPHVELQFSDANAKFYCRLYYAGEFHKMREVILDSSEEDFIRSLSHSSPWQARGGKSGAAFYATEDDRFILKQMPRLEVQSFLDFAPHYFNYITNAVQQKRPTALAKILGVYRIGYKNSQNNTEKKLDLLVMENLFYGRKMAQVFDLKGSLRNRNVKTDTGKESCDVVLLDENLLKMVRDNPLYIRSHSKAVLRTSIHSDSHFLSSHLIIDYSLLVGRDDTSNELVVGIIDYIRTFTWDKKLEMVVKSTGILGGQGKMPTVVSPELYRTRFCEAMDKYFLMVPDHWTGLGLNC

Row | Structure (SMILES) | EC50 (PIKFYVE [1]) | IC50 (PIKFYVE [2])
1 | Cc1cccc(-c2ccn(-c3cc(N4CCOCC4)nc(OCCc4sc(C)nc4C)n3)n2)c1 [Compound 98, 4-(2-(2-(2,4-dimethylthiazol-5-yl)ethoxy)-6-(3-(m-tolyl)-1H-pyrazol-1-yl)pyrimidin-4-yl)morpholine] | < 20 nM | 3 to 10 nM
2 | Cc1cccc(-c2ccn(-c3cc(N4CCOCC4)nc(OCCNc4ccccc4)n3)n2)c1 [Compound 99, N-(2-((4-morpholino-6-(3-(m-tolyl)-1H-pyrazol-1-yl)pyrimidin-2-yl)oxy)ethyl)aniline] | 100 to 500 nM | 10 to 100 nM
3 | Cc1cccc(-c2ccn(-c3cc(N4CCOCC4)nc(OCCN(C)c4ccccc4)n3)n2)c1 [Compound 100, N-methyl-N-(2-((4-morpholino-6-(3-(m-tolyl)-1H-pyrazol-1-yl)pyrimidin-2-yl)oxy)ethyl)aniline] | 100 to 500 nM | 3 to 10 nM
4 | Cc1cccc(-c2ccn(-c3cc(N4CCOCC4)nc(OCC4CC4)n3)n2)c1 [Compound 101, 4-(2-(cyclopropyl-methoxy)-6-(3-(m-tolyl)-1H-pyrazol-1-yl)pyrimidin-4-yl)morpholine] | 100 to 500 nM | 3 to 10 nM
5 | C/C=C/COc1nc(N2CCOCC2)cc(-n2ccc(-c3cccc(C)c3)n2)n1 [Compound 102, (E)-4-(2-(but-2-en-1-yloxy)-6-(3-(m-tolyl)-1H-pyrazol-1-yl)pyrimidin-4-yl)morpholine] | < 20 nM | < 3 nM
6 | CC#CCOc1nc(N2CCOCC2)cc(-n2ccc(-c3cccc(C)c3)n2)n1 [Compound 103, 4-(2-(but-2-yn-1-yloxy)-6-(3-(m-tolyl)-1H-pyrazol-1-yl)pyrimidin-4-yl)morpholine] | 100 to 500 nM | 3 to 10 nM
7 | CC#CCCOc1nc(N2CCOCC2)cc(-n2ccc(-c3cccc(C)c3)n2)n1 [Compound 104, 4-(2-(pent-3-yn-1-yloxy)-6-(3-(m-tolyl)-1H-pyrazol-1-yl)pyrimidin-4-yl)morpholine] | 20 to 100 nM | < 3 nM
8 | COc1ccc(CCOc2nc(N3CCOCC3)cc(-n3ccc(-c4cccc(C)c4)n3)n2)cc1OC [Compound 105, 4-(2-(3,4-dimethoxy-phenethoxy)-6-(3-(m-tolyl)-1H-pyrazol-1-yl)pyrimidin-4-yl)morpholine] | < 20 nM | < 3 nM
9 | Cc1cccc(-c2ccn(-c3cc(N4CCOCC4)nc(O)n3)n2)c1 [Compound 106, 4-morpholino-6-(3-(m-tolyl)-1H-pyrazol-1-yl)pyrimidin-2-ol] | 500 to 5000 nM | 10 to 100 nM
10 | Cc1cccc(-c2ccn(-c3cc(N4CCOCC4)nc(N(C)C)n3)n2)c1 [Compound 107, N,N-dimethyl-4-morpholino-6-(3-(m-tolyl)-1H-pyrazol-1-yl)pyrimidin-2-amine] | 500 to 5000 nM | 10 to 100 nM
11 | C#CCCCOc1nc(N2CCOCC2)cc(-n2ccc(-c3cccc(C)c3)n2)n1 [Compound 108, 4-(2-(pent-4-yn-1-yloxy)-6-(3-(m-tolyl)-1H-pyrazol-1-yl)pyrimidin-4-yl)morpholine] | 20 to 100 nM | 3 to 10 nM
12 | Cc1cccc(-c2ccn(-c3cc(N4CCOCC4)nc(OCC(=O)C4CC4)n3)n2)c1 [Compound 109, 1-cyclopropyl-2-((4-morpholino-6-(3-(m-tolyl)-1H-pyrazol-1-yl)pyrimidin-2-yl)oxy)ethan-1-one] | 20 to 100 nM | 3 to 10 nM
13 | Cc1cccc(-c2ccn(-c3cc(N4CCOCC4)nc(OC4COC4)n3)n2)c1 [Compound 110, 4-(2-(oxetan-3-yloxy)-6-(3-(m-tolyl)-1H-pyrazol-1-yl)pyrimidin-4-yl)morpholine] | 100 to 500 nM | < 3 nM
14 | Cc1cccc(-c2ccn(-c3cc(N4CCOCC4)nc(OCC(c4ccccc4)N(C)C)n3)n2)c1 (stereo not shown) [Compound 111, N,N-dimethyl-2-((4-morpholino-6-(3-(m-tolyl)-1H-pyrazol-1-yl)pyrimidin-2-yl)oxy)-1-phenylethan-1-amine] | > 5000 nM | 3 to 10 nM
15 | Cc1cccc(-c2ccn(-c3cc(N4CCOCC4)nc(OCCCc4ccco4)n3)n2)c1 [Compound 112, 4-(2-(3-(furan-2-yl)propoxy)-6-(3-(m-tolyl)-1H-pyrazol-1-yl)pyrimidin-4-yl)morpholine] | 500 to 5000 nM | 10 to 100 nM
16 | Cc1cccc(-c2ccn(-c3cc(N4CCOCC4)nc(OC(CN(C)C)c4ccccc4)n3)n2)c1 (stereo not shown) [Compound 113, N,N-dimethyl-2-((4-morpholino-6-(3-(m-tolyl)-1H-pyrazol-1-yl)pyrimidin-2-yl)oxy)-2-phenylethan-1-amine] | 100 to 500 nM | < 3 nM
17 | c1ccc(-c2ccn(-c3cc(N4CCOCC4)nc(OCc4cccnn4)n3)n2)cc1 [Compound 114, 4-(6-(3-phenyl-1H-pyrazol-1-yl)-2-(pyridazin-3-ylmethoxy)pyrimidin-4-yl)morpholine] | 100 to 500 nM | 3 to 10 nM
18 | Cn1ccc(COc2nc(N3CCOCC3)cc(-n3ccc(-c4ccccc4)n3)n2)n1 [Compound 115, 4-(2-((1-methyl-1H-pyrazol-3-yl)methoxy)-6-(3-phenyl-1H-pyrazol-1-yl)pyrimidin-4-yl)morpholine] | 100 to 500 nM | < 3 nM
19 | Cc1cccc(-c2ccn(-c3cc(N4CCOCC4)nc(OCCn4cnc(CO)c4)n3)n2)c1 [Compound 116, (1-(2-((4-morpholino-6-(3-(m-tolyl)-1H-pyrazol-1-yl)pyrimidin-2-yl)oxy)ethyl)-1H-imidazol-4-yl)methanol] | 100 to 500 nM | < 3 nM
20 | Cc1cccc(-c2ccn(-c3cc(N4CCOCC4)nc(OCCn4cnc(CN(C)C)c4)n3)n2)c1 [Compound 117, N,N-dimethyl-1-(1-(2-((4-morpholino-6-(3-(m-tolyl)-1H-pyrazol-1-yl)pyrimidin-2-yl)oxy)ethyl)-1H-imidazol-4-yl)methanamine] | 500 to 5000 nM | 10 to 100 nM
21 | Cc1cccc(-c2ccn(-c3cc(N4CCOCC4)nc(OCCc4cn(C)cn4)n3)n2)c1 [Compound 118, 4-(2-(2-(1-methyl-1H-imidazol-4-yl)ethoxy)-6-(3-(m-tolyl)-1H-pyrazol-1-yl)pyrimidin-4-yl)morpholine] | 20 to 100 nM | < 3 nM
22 | Cc1cccc(-c2ccn(-c3cc(N4CCOCC4)nc(OCCc4c[nH]cn4)n3)n2)c1 [Compound 119, 4-(2-(2-(1H-imidazol-4-yl)ethoxy)-6-(3-(m-tolyl)-1H-pyrazol-1-yl)pyrimidin-4-yl)morpholine] | 20 to 100 nM | 3 to 10 nM
23 | Cc1cccc(-c2ccn(-c3cc(N4CCOCC4)nc(OCc4cn[nH]c4)n3)n2)c1 [Compound 120, 4-(2-((1H-pyrazol-4-yl)methoxy)-6-(3-(m-tolyl)-1H-pyrazol-1-yl)pyrimidin-4-yl)morpholine] | 100 to 500 nM | 10 to 100 nM
24 | Cc1cccc(-c2ccn(-c3cc(N4CCOCC4)nc(OCCO)n3)n2)c1 [Compound 121, 2-((4-morpholino-6-(3-(m-tolyl)-1H-pyrazol-1-yl)pyrimidin-2-yl)oxy)ethan-1-ol] | 100 to 500 nM | 3 to 10 nM
25 | Cc1cccc(-c2ccn(-c3cc(N4CCOCC4)nc(OCC4COC4)n3)n2)c1 [Compound 122, 4-(2-(oxetan-3-ylmethoxy)-6-(3-(m-tolyl)-1H-pyrazol-1-yl)pyrimidin-4-yl)morpholine] | 100 to 500 nM | 3 to 10 nM
26 | Cn1cc(CCOc2nc(N3CCOCC3)cc(-n3ccc(C4CC4)n3)n2)cn1 [Compound 123, 4-(6-(3-cyclopropyl-1H-pyrazol-1-yl)-2-(2-(1-methyl-1H-pyrazol-4-yl)ethoxy)pyrimidin-4-yl)morpholine] | 500 to 5000 nM | 10 to 100 nM
27 | CCCc1ccn(-c2cc(N3CCOCC3)nc(OCCc3cnn(C)c3)n2)n1 [Compound 124, 4-(2-(2-(1-methyl-1H-pyrazol-4-yl)ethoxy)-6-(3-propyl-1H-pyrazol-1-yl)pyrimidin-4-yl)morpholine] | > 5000 nM | > 5000 nM
28 | Cc1ccccc1-c1ccn(-c2cc(N3CCOCC3)nc(OCCc3cnn(C)c3)n2)n1 [Compound 125, 4-(2-(2-(1-methyl-1H-pyrazol-4-yl)ethoxy)-6-(3-(o-tolyl)-1H-pyrazol-1-yl)pyrimidin-4-yl)morpholine] | 100 to 500 nM | 10 to 100 nM
29 | Cn1cc(CCOc2nc(N3CCOCC3)cc(-n3ccc(-c4cccc(C#N)c4)n3)n2)cn1 [Compound 126, 3-(1-(2-(2-(1-methyl-1H-pyrazol-4-yl)ethoxy)-6-morpholino-pyrimidin-4-yl)-1H-pyrazol-3-yl)benzonitrile] | 100 to 500 nM | 10 to 100 nM
